# Laboratory results reported in patent US5059590A, “Imidazole derivatives, process for production thereof, and use thereof” (Yamasa Shoyu Kabushiki Kaisha, priority 1988, dated 1991).
# Key:
# T24 = assay: In vitro anti-proliferative activity against human tumor cell lines (T24); type: cell-based; settings: T-24, T24, Bladder trasitional-cell carcinoma, 72 hours
# Experimental: (§1) In vitro anti-proliferative activity against human tumor cell lines
# (§2) Test Compound: 5-ethynyl-1-β-D-ribofuranosylimidazole-4-carboxamide
# (§3) A variety of human tumor cell lines are suspended in media specified according to the species of the cell lines to predetermined cell concentrations as shown in the following Table.
# (§4) 1 ml of the resulting cell suspension is seeded into each well of a 24 multi-well plate and incubated in a 5% CO2 -incubator at 37° C. for 24 hours. The culture medium is then replaced by a medium containing no test compound or by an appropriate amount of a serially diluted test compound solution. […] The number of the cells in each well is counted with a Coulter counter (Model ZB, Coulter Electronics), and the growth inhibition percent (%) of the cells at each concentration of a test compound is determined by the following equation: [formula] Tx: Number of the cells in a well containing a test compound as counted upon completion of the incubation (cells/ml) […] Cx: Number of the cells in a well containing no test compound as counted upon completion of the incubation (cells/ml)
# (§5) Co: Number of the cells in a well containing no test compound as counted at the initiation of the incubation (cells/ml) […]
# Dul45 = assay: In vitro anti-proliferative activity against human tumor cell lines (Dul45); type: cell-based; settings: Dul45, Prostate carcinoma, 72 hours
# Experimental: as §1, §2, §3, §4, §5
# [1] = test system: Mouse lymphoma cell line P388; assay: In vitro anti-proliferative activity against mouse tumor cell lines, Test Method 2 (P388); type: cell-based; settings: P388, 48 hours, 37° C.
# Experimental: In vitro anti-proliferative activity against mouse tumor cell lines
# 1. Mouse lymphoma cell line P388 or mouse sarcoma 180 is suspended in RPMI1640 medium supplemented with 10% fetal bovine serum and 2 μM 2-hydroxyethyl disulfide to a concentration of 10^5 cells/ml. Test compounds are serially diluted with the same medium.
# 2. 0.5 ml of the cell suspension thus obtained is admixed with 0.5 ml of the medium or the test compound solution, and the mixture is incubated in a 5% CO2 -incubator at 37° C. for 48 hours. The incubation is carried out in glass culture tubes.
# 3. At the end of incubation, the number of the cells in each tube is counted with a Coulter counter (Model ZB, Coulter Electronics), and the growth inhibition percent (%) is calculated from the same equation as in Test Method 1.
# 4. The IC50 value is obtained as in Test Method I.
# HeLa = assay: In vitro anti-proliferative activity against human tumor cell lines (HeLa); type: cell-based; settings: Cervical carcinoma, 72 hours
# Experimental: as §1, §2, §3, §4, §5
# sarcoma 180 = assay: In vivo antitumor activity against sarcoma 180 intracutaneously implanted into BALB/c mice; design: species or system mouse; key to Tumor growth rate (Rt): R = tumor volume at time / tumor volume on day 8 (A/A8); settings: for antitumor activity: i.v.
# Experimental: In vivo antitumor activity against sarcoma 180 intracutaneously implanted into BALB/c mice
# Three million (3×10^6) Sarcoma 180 cells are intracutaneously implanted at the ventral site of BALB/c mice (male, 5 weeks old). Eight days after the implantation when the tumor volume reached 200 to 300 mm^3, the mice are divided into groups (6 mice/group), and the treatment with a test drug was started. The test drug is dissolved in distilled water and intravenously administered to the mice at a rate of 0.1 ml per 10 g of the body weight thereof. In accordance with two different schedules, 5-ethynyl01β-D-ribofuranosylimidazole-4-carboxamide is administered once or three times, i.e., once at a dose of 250 mg/kg on day 8 (single-dose group) or three times at a dose of 125 mg/kg on days 8, 12 and 16 (multiple-dose group).
# Each mouse is weighed, and the width (a mm) and length (b mm) of the tumor thereof are measured twice a week to determine the tumor volume (A mm^3) from the following equation: […]
# Subsequently, the tumor growth rate (R) is determined as follows on the basis of the tumor volume (A8) on day 8 after the implantation of the tumor cells :
# R: Tumor growth rate after a predetermined period from the tumor implantation
# A: Tumor volume after a predetermined period from the tumor implantation
# A8 : Tumor volume as determided 8 days after the tumor implantation
# T/C(%) is further obtained from the following equation by comparison between the tumor growth rate in the test group (Rt) and that in the control group (Rc):
# Single-dose group: 250 mg/kg of the drug was intravenously administered o
# day 8 after the tumor implantation.
# Multipledose group: 125 mg/kg of the drug was intravenously administered
# on days 8, 12 and 16 after the tumor implantation.
# KB = assay: In vitro anti-proliferative activity against human tumor cell lines (KB); type: cell-based; settings: Nasopharyngeal carcinoma, 72 hours
# Experimental: as §1, §2, §3, §4, §5
# MG-63 = assay: In vitro anti-proliferative activity against human tumor cell lines (MG-63); type: cell-based; settings: MG-63, Osteogenic sarcoma, 72 hours
# Experimental: as §1, §2, §3, §4, §5
# WiDr = assay: In vitro anti-proliferative activity against human tumor cell lines (WiDr); type: cell-based; settings: Colon adenocarcinoma, 72 hours
# Experimental: as §1, §2, §3, §4, §5
# HEp-2 = assay: In vitro anti-proliferative activity against human tumor cell lines (HEp-2); type: cell-based; settings: HEp-2, Laryngeal carcinoma, 72 hours
# Experimental: as §1, §2, §3, §4, §5
# A549 = assay: In vitro anti-proliferative activity against human tumor cell lines (A549); type: cell-based; settings: A549, Lung carcinoma, 72 hours
# Experimental: as §1, §2, §3, §4, §5
# [2] = multiple-dose group, 125 mg/kg i.v. days 8, 12, 16, day 8 after implantation
# [3] = multiple-dose group, 125 mg/kg i.v. days 8, 12, 16, day 12
# [4] = multiple-dose group, 125 mg/kg i.v. days 8, 12, 16, day 15, * = P < 0.05 vs control
# [5] = multiple-dose group, 125 mg/kg i.v. days 8, 12, 16, day 19, * = P < 0.05 vs control
# [6] = multiple-dose group, 125 mg/kg i.v. days 8, 12, 16, day 22, * = P < 0.05 vs control
# [7] = multiple-dose group, 125 mg/kg i.v. days 8, 12, 16, day 26, * = P < 0.05 vs control
# [8] = multiple-dose group, 125 mg/kg i.v. days 8, 12, 16, day 29, * = P < 0.05 vs control
# [9] = multiple-dose group, 125 mg/kg i.v. days 8, 12, 16, day 33
# [10] = single-dose group, 250 mg/kg i.v. day 8, day 8 after implantation
# [11] = single-dose group, 250 mg/kg i.v. day 8, day 12, * = P < 0.05 vs control
# [12] = single-dose group, 250 mg/kg i.v. day 8, day 15, * = P < 0.05 vs control
# [13] = single-dose group, 250 mg/kg i.v. day 8, day 19, * = P < 0.05 vs control
# [14] = single-dose group, 250 mg/kg i.v. day 8, day 22, * = P < 0.05 vs control
# [15] = single-dose group, 250 mg/kg i.v. day 8, day 26, * = P < 0.05 vs control
# [16] = single-dose group, 250 mg/kg i.v. day 8, day 29, * = P < 0.05 vs control
# [17] = single-dose group, 250 mg/kg i.v. day 8, day 33, * = P < 0.05 vs control
structure (smiles),measurement,setting,value
C#Cc1c(C(N)=O)ncn1[C@@H]1O[C@H](CO)[C@@H](O)[C@H]1O [5-ethynyl-1-β-D-ribofuranosylimidazole-4-carboxamide],IC50,T24,0.37 µg/mL
same,IC50,Dul45,< 0.1 µg/mL
same,IC50,[1],0.16 µg/mL
same,IC50,HeLa,0.3 µg/mL
same,antitumor activity,sarcoma 180; 125 mg/kg every 4 days 3 times in total,remarkable antitumor activity
same,Body weight,sarcoma 180; [2],26 g
same,T/C (%),sarcoma 180; [2],100%
same,Tumor growth rate (Rt),sarcoma 180; [2],1.0
same,Body weight,sarcoma 180; [3],26 g
same,T/C (%),sarcoma 180; [3],81%
same,Tumor growth rate (Rt),sarcoma 180; [3],1.5
same,Body weight,"sarcoma 180; multiple-dose group, 125 mg/kg i.v. days 8, 12, 16, day 15",25 g
same,T/C (%),sarcoma 180; [4],51%
same,Tumor growth rate (Rt),sarcoma 180; [4],1.5
same,Body weight,"sarcoma 180; multiple-dose group, 125 mg/kg i.v. days 8, 12, 16, day 19",25 g
same,T/C (%),sarcoma 180; [5],45%
same,Tumor growth rate (Rt),sarcoma 180; [5],1.9
same,Body weight,"sarcoma 180; multiple-dose group, 125 mg/kg i.v. days 8, 12, 16, day 22",26 g
same,T/C (%),sarcoma 180; [6],37%
same,Tumor growth rate (Rt),sarcoma 180; [6],2.6
same,Body weight,"sarcoma 180; multiple-dose group, 125 mg/kg i.v. days 8, 12, 16, day 26",26 g
same,T/C (%),sarcoma 180; [7],39%
same,Tumor growth rate (Rt),sarcoma 180; [7],4.7
same,Body weight,"sarcoma 180; multiple-dose group, 125 mg/kg i.v. days 8, 12, 16, day 29",26 g
same,T/C (%),sarcoma 180; [8],42%
same,Tumor growth rate (Rt),sarcoma 180; [8],7.0
same,Body weight,sarcoma 180; [9],27 g
same,T/C (%),sarcoma 180; [9],53%
same,Tumor growth rate (Rt),sarcoma 180; [9],11
same,antitumor activity,sarcoma 180; once at a dose of 250 mg/kg,remarkable antitumor activity
same,Body weight,sarcoma 180; [10],25 g
same,T/C (%),sarcoma 180; [10],100%
same,Tumor growth rate (Rt),sarcoma 180; [10],1.0
same,Body weight,"sarcoma 180; single-dose group, 250 mg/kg i.v. day 8, day 12",24 g
same,T/C (%),sarcoma 180; [11],65%
same,Tumor growth rate (Rt),sarcoma 180; [11],1.2
same,Body weight,"sarcoma 180; single-dose group, 250 mg/kg i.v. day 8, day 15",25 g
same,T/C (%),sarcoma 180; [12],45%
same,Tumor growth rate (Rt),sarcoma 180; [12],1.3
same,Body weight,"sarcoma 180; single-dose group, 250 mg/kg i.v. day 8, day 19",25 g
same,T/C (%),sarcoma 180; [13],46%
same,Tumor growth rate (Rt),sarcoma 180; [13],2.0
same,Body weight,"sarcoma 180; single-dose group, 250 mg/kg i.v. day 8, day 22",26 g
same,T/C (%),sarcoma 180; [14],34%
same,Tumor growth rate (Rt),sarcoma 180; [14],2.4
same,Body weight,"sarcoma 180; single-dose group, 250 mg/kg i.v. day 8, day 26",26 g
same,T/C (%),sarcoma 180; [15],39%
same,Tumor growth rate (Rt),sarcoma 180; [15],4.7
same,Body weight,"sarcoma 180; single-dose group, 250 mg/kg i.v. day 8, day 29",26 g
same,T/C (%),sarcoma 180; [16],39%
same,Tumor growth rate (Rt),sarcoma 180; [16],6.6
same,Body weight,"sarcoma 180; single-dose group, 250 mg/kg i.v. day 8, day 33",27 g
same,T/C (%),sarcoma 180; [17],45%
same,Tumor growth rate (Rt),sarcoma 180; [17],9.5
same,IC50,KB,0.33 µg/mL
same,IC50,MG-63,0.38 µg/mL
same,IC50,WiDr,0.46 µg/mL
same,IC50,HEp-2,0.47 µg/mL
same,IC50,A549,0.37 µg/mL
